The source of these data is patent US5192799A, “Coumaran group containing amine compounds and their acid addition salts and quaternary ammonium salts and the use thereof as anti arrhythmic agents and as psychotropic agents” (Mitsui Petrochemical Industries, Ltd., priority 1987, dated 1993).

Data set [1] relates to Purkinje fiber. As to the kind of experiment: Effect on APD (APD75, field-stimulated right ventricular free wall). The data set is classed as cell-based, adult mongrel dog. To be noted: Canis lupus familiaris, purkinje, 20 min, 20 minutes incubation, 37° C., 1 Hz, control before drug = 100%, read-out: APD75 % (percent change in APD75). In a few lines:
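Right ventricular free wall from pentobarbital-anaesthetized adult mongrel dog, held in Tyrode's solution at 37° C. with 1 Hz field stimulation. Purkinje fiber action potentials recorded by intracellular glass microelectrodes; APD75 measured after 20 minutes drug perfusion, expressed as percent change versus pre-drug control (100%).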

Data set [2] relates to atrial fibrillation. Kind of data set: Atrial fibrillation model. The data set is classed as in vivo, mongrel dog. To be noted: dose of 0.3 to 3 mg/kg or 1 to 10 mg/kg. The text has this:
Furthermore, the anaethetized dog was cut open at the chest. Bipolar electrodes were sutured to the right atrial surface, and stimulation electrodes were attached to the vagus nerves at both sides of the cervical region. Atrial fibrillation was induced by the method of Goldberger et al. A. L. Goldberger et al.: […] Further, the anaethetized dog was cut open at the chest. Left anterior descending coronary artery was ligated, and ninety minutes later, reperfused to prepare a myocardial infarction which was liable to develop tachycardia. At that time, a bipolar plunge electrode was placed in the interventricular septum near the ligated site. Several days after the operation, programmed electrical stimulation was applied to induce tachycardia. The effect of the drug to cause disappear of tachycardia was examined. In an anaethetized and open-chested mongrel dog, bipolar electrodes (silver and silver-silver chloride electrodes) were sutured respectively to the right atrium for stimulation and recording. The vagus nerves on both sides of the cervical region were isolated and cut, and stimulation electrodes were attached to the peripheral end. The atrial fibrillation was induced in accordance with the method of Goldberger et al. After cardiac arrest induced by stimulating the vagus nerves, electrical stimulation was applied to the right atria at a high frequency.

For data set [3], the system named is right ventricle (effective refractory period). As to the kind of experiment: Activity on ERP of the right ventricle. The data set is classed as in vivo, adult mongrel dog. To be noted: Canis lupus familiaris, iv, ERP before drug = 100%, read-out: ERP % (ERP prolonging activity). In a few lines:
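Anaesthetized open-chest mongrel dogs, right ventricle paced at 400 msec interval (4 msec, twice diastolic threshold) after alcohol ablation of sinus pacemaker. ERP defined by loss of response to first stimulus of a 10-stimulus train; drug given intravenously or intraduodenally, ERP expressed as % of pre-dose.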

The test system of data set [4] is mice. Kind of data set: in vivo. To be noted: p.o., 24 hours after administration, male ddY mice; 1440 min. On the procedure:
(§1) By using male ddY-strain 5-week old mice (3 to 4 per group), the compounds of general formula (1) were each administered orally or intraperitoneally as a solution in saline or as a suspension in methyl cellulose, and 24 hours after the administration, the toxicity of the compounds was evaluated.

Data set [5] deals with T1, serotonine 2 receptor (Rattus norvegicus, UniProt P14842).
T1 construct: frontal cortex fraction prepared from the brain of a Wistar male rat; from tissue; host or cells: rat brain frontal cortex (Wistar, male), membrane fraction
Kind of data set: [3H]ketanserin binding assay (affinity for serotonine 2 receptor). Also noted: species or system Wistar male rat. To be noted: rat frontal cortex, 1 nM [3H] ketanserin, 37° C., 10 minutes. On the procedure:
(§2) Striatal membranes fractions were prepared from a rat brain, and the affinity of the compounds of this invention on dopamine 2 receptors was determined by using [^3 H] spiperone assay from membranes fractions as an index. Moreover, frontal cortex membranes were prepared from a rat brain, and the affinity of the test drugs on serotonine 2 receptor was determined by using [^3 H] ketenserin binding assay. It was shown that the compounds of general formula (1) of the invention have marked anti-dopamine activity and anti-serotonine activity.
[^3 H] ketanserin binding assay
The affinity of the compound of the invention was determined on the basis of the ability to substitute [^3 H] ketanserin from a frontal cortex fraction prepared from the brain of a Wistar male rat.
The rat was decapitated, and the brain was obtained. The frontal cortex was homogenized in 40 volumes of 50 mM Tris-HCl buffer (pH 7.6), and then centrifuged. The pellets were again homogenized in 100 volumes of the same buffer, and used in a binding test. The binding test was conducted by the following procedure.
The frontal cortex (original tissue weight 1 mg/ml), 100 microliters of a test drug and 1 nM of [^3 H] ketanserin were incubated at 37° C. for 10 minutes in 50 mM Tris-HCl buffer (pH 7.6). Then, the reaction mixture was suction-filtered through a glass fiber filter (Watmann GF/B) and washed with a buffer three times.
The filter was put in a scintillation cocktail (ACSII, Amersham Co.), and after mixing, left to stand overnight. The radioactivity held on the filter was measured by a liquid scintillation counter. The nonspecific binding was measured in the presence of 1 μM of methysergide. The concentration of the test drug which inhibited 50% of a specific binding was determined from the graph and defined as IC5. Ki was calculated from the following equation. [formula]

Data set [6] concerns Apomorphine-induced climbing of mice. As to the kind of experiment: Apomorphine-induced climbing (anti-DA activity). The format is in vivo, ddY-strain male mice. The text has this: (§3) The effects of the compounds of general formula (1) on the apomorphine-induced climbing behavior of mice (i.e. anti-dopamine activity) and the effects of the test drugs of the invention on the quipazine-induced head twitching of mice (i.e. anti-serotonine activity) were also examined. It was made clear that the compounds of this invention represented by general formula (1) have marked anti-dopamine activity and anti-serotonine activity both in vivo and in vitro, and have potentiality as an anti-psychotic agent, an anti-depressant, an antianxiety agent, a sedative or as an anti-dementia agent.
(§4) By using 5 week old ddY-strain male mice (10 per group), the anti-dopamine (anti-DA hereinafter) and anti-serotonine (anti-5-HT hereinafter) activities were examined by the following procedures. All does of test drugs were adjusted to 1 mg/ml. They were each suspended in 0.5% carboxymethyl cellulose (CMC)/saline so that their volume administered was 0.1 ml/10 g. The suspension was administered intraperitoneally.
1. Effect of apomorphine on the climbing behavior (anti-DA activity):
Apomorphine (3 mg/kg) was subcutaneously administered 30 minutes after the intraperitoneal administration of each test drug, and 20 minutes later, the climbing time of each mouse was measured.

In data set [7] the test system is Quipazine-induced head twitching of mice. As to the kind of experiment: Quipazine-induced head twitching (anti-5-HT activity). The format is in vivo, ddY-strain male mice.
Description: as §3, §4
2. Effect of quipazine on the head twitch (anti-5-HT activity):
Quipazine (3 mg/kg) was administered intraperitoneally 30 minutes after the intraperitoneal administration of each test drug. After the lapse of 10 minutes, 20 minutes and 30 minutes from then, the number of head twitchings of each mouse which occurred for 2 minutes was counted.

For data set [8], the target named is T2, dopamine 2 receptor (Rattus norvegicus, UniProt P61169).
T2 construct: membrane fractions prepared from the brain a Wistarstrain male rat; from tissue; host or cells: rat brain striatum (Wistar, male), membrane fraction
As to the kind of experiment: [3H]spiperone binding assay (affinity for dopamine 2 receptor). More on the design: species or system Wistar-strain male rat. To be noted: rat striatal membranes, 0.5 nM [3H] spiperone, 37° C., 10 minutes. The protocol:
as §2
[^3 H]spiperone binding assay
The affinity of the compounds of this invention to the dopamine 2 receptor was determined on the basis of the ability to substitute [^3 H] spiperone from stratal membrane fractions prepared from the brain a Wistarstrain male rat.
The rat was decapitated, and the brain was obtained. The striatum was homogenized in 40 volumes of 50 mM Tris-HCl buffer (pH 7.6), and then centrifuged. The pellets were again homogenized in 50 volumes of the same buffer, and used in a binding test. The binding test was conducted by the following procedure.
The stria (original tissue weight 20 mg/ml), 100 microliters of a test drug and 0.5 nM of [^3 H] spiperone were incubated at 37° C. for 10 minutes in 50 mM Tris-HCl buffer (pH 7.6). Then, the reaction mixture was suction-filtered through a glass fiber filter (Watmann GF/B) and washed with a buffer three times.
The filter was put in a scintillation cocktail (ACSII, Amersham Co.), and after mixing, left to stand overnight. The radioactivity held on the filter was measured by a liquid scintillation counter. The nonspecific binding was measured in the presence of 1 μM of (+) butaclamol. The concentration of the test drug which inhibited 50% of a specific binding was determined from the graph and defined as IC50. Ki was calculated from the following equation. [formula]

The nature of data set [9]: in vivo. To be noted: mouse, in vivo, po. On the procedure:
as §1

Structures are written as SMILES. A value given as a limit tells only on which side of the number the result lay.

T2 sequence (P61169 whole entry): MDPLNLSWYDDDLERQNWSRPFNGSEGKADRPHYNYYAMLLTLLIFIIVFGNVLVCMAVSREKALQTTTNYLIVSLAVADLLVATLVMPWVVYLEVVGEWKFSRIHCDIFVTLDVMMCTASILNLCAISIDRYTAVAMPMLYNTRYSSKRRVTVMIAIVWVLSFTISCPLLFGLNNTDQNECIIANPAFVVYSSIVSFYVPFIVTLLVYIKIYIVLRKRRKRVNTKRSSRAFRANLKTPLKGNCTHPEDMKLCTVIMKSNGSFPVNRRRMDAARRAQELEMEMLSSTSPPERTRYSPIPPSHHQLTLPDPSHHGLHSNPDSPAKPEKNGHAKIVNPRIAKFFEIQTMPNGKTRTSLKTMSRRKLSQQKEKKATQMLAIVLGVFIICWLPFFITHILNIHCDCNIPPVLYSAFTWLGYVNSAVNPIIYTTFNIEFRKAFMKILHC
T1 sequence (P14842 whole entry): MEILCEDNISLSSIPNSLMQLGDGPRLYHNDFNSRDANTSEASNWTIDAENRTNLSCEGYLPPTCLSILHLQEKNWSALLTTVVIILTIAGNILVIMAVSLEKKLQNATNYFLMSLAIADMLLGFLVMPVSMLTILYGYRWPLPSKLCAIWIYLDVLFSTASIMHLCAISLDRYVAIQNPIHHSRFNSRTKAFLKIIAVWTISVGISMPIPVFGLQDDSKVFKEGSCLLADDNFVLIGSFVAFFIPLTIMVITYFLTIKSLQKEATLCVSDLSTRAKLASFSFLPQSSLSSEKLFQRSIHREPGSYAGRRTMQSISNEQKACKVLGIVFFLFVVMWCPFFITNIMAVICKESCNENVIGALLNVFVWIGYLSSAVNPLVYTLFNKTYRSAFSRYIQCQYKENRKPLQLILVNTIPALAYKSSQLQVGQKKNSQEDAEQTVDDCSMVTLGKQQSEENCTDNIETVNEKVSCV

For `O=C1COc2cc(OCCCN3CCC(c4ccccc4)CC3)ccc21` [Compound 1139], the activation at 1 µg/mL in data set [1] (dose 1 μg/ml) is 33%. Also, the activation at 3 µg/mL in [1] (dose 3 μg/ml) was found to be 55%. In [1] (dose 10 μg/ml), the activation at 10 µg/mL was 65%. Further, the “disappearance of atrial fibrillation” value in data set [2] is given as “could cause disappearance fibrillation”. The change in vivo at 0.3 mg/kg in [3] (0.3 mg/kg i.v.) turned out to be 5%. The change in vivo at 1 mg/kg in data set [3] (1 mg/kg i.v.) turned out to be 11%. Also, in [4], the LD50 p.o. was > 1,000 mg/kg.

The molecule `O=C1COc2cc(OCCCN3CCC(c4ccccc4)CC3)ccc21` [Compound 1140] gave an LD50 p.o. in data set [4] of more than 300 mg/kg.

One may read the Ki as a measure of affinity in units of concentration, obtained from inhibition or displacement. A high value points to lower affinity. Usually LD50 stands for the dose expected to kill half of the subjects tested. Regarding `O=C1COc2cc(OCCCN3CCC(C(=O)c4ccc(F)cc4)CC3)ccc21` [Compound 1236], the Ki in data set [5] stood at 9.1 nM; in data set [8], 122 nM. In addition, in data set [6] (1 mg/kg i.p.), the “Percent inhibition of apomorphine-induced climbing” value is 56%. For the same molecule, the “Apomorphine-induced climbing (mean ± S.E.)” value in data set [6] (1 mg/kg i.p., control 72.9 ± 8.5, **p < 0.01) is reported as 32.0 ± 8.6 sec/2 min. Also, in data set [6] (in vivo, mice), the “effect on apomorphine-induced climbing behavior / anti-dopamine activity (in words)” value is “significantly inhibited the apomorphine-induced climbing behavior”. In addition, in [7] (1 mg/kg i.p.), the “Percent inhibition of quipazine-induced head twitching” value turned out to be 99%. Further, the Quipazine-induced head twitching in data set [7] (1 mg/kg i.p., control 6.7 ± 0.8, **p < 0.05, ***p < 0.001) worked out at 0.1 ± 0.1 number/2 min. Further, in data set [7] (in vivo, mice), the “effect on quipazine-induced head twitching / anti-serotonine activity (in words)” value was “significantly inhibited the apomorphine-induced climbing behavior and quipazine-induced head twitching”. Moreover, in data set [9], the LD50 at 24 h is less than 300 mg/kg.
